Assay results taken from paper PMC9043592, “New triterpenes from Cimicifuga yunnanensis down-regulating the mRNA expression of CD147, MMP-2, and MMP-9” (RSC Advances, 2021).

How the values were obtained:
[1] = system: CD147 and MMPs mRNA expression; parameters: method as in PMID 35541353, doi:10.1016/j.phytol.2021.01.009; conditions: previously identified CTs from C. foetida; cited from earlier work
MMP-2 mRNA expression = test: q-PCR, mRNA expression of MMP-2 in PMA-induced THP-1 cells; assay type: cell-based, Human; conditions: 24 h
Description: (§1) Human monocytic THP-1 cells were cultured at 37 °C by DMEM/F12 medium supplemented with 10% fetal bovine serum and 1% penicillin/streptomycin in a humidified atmosphere of 5% CO2. Cells (5 × 10^5 to 10^6 per mL) were subjected to differentiation by 100 nM PMA for 24 h with DMEM/F12 serum medium. After incubation, the adherent cells were washed with DMEM/F12. Nonattached cells were removed by aspiration.
(§2) RevertAid™ First Strand cDNA Synthesis Kit was applied to extract total RNA of differentiated THP-1 cells treated with compounds 3–5, 9 and 11 (10 μM), along with 7 and 8 (1, 3, 10, 25, and 50 μM) for 24 h (5 × 10^5 cells per mL) following the manufacturer's instructions. cDNA was synthesized from the isolated total RNA based on the instruction of the PrimeScript RT reagent Kit. […]
(§3) After reverse transcription, cDNA was used to carry out real-time quantitative RT-PCR on ProFlex™ PCR system by SYBR Premix Ex Taq (Takara). […] Internal reference is GAPDH mRNA, and fold changes of mRNA expression for each target relative to GAPDH were calculated by the 2^−ΔΔCt method. Expression of mRNA is determined as the change in mRNA copy numbers relative to negative control cells (undifferentiated THP-1 cells). […]

MMP-9 mRNA expression = test: q-PCR, mRNA expression of MMP-9 in PMA-induced THP-1 cells; assay type: cell-based, Human; conditions: 24 h
Description: as §1, §2, §3

[2] = system: CD147 (extracellular matrix metalloproteinase inducer, EMMPRIN) mRNA expression; test: q-PCR, mRNA expression of CD147 in PMA-induced THP-1 cells; assay type: cell-based, Human; conditions: 24 h; for CD147 mRNA inhibitory effect compared with YG (positive control) / suppression of the mRNA expression of CD147 (in words): 10 μM; for IC50: Homo sapiens, q-PCR 2^-ΔΔCt, 1-50 μM, read-out: IC50, suppression of mRNA expression of CD147
Description: as §1
RevertAid™ First Strand cDNA Synthesis Kit was applied to extract total RNA of differentiated THP-1 cells treated with compounds 3–5, 9 and 11 (10 μM), along with 7 and 8 (1, 3, 10, 25, and 50 μM) for 24 h (5 × 10^5 cells per mL) following the manufacturer's instructions. cDNA was synthesized from the isolated total RNA based on the instruction of the PrimeScript RT reagent Kit. Briefly, PrimeScript RT Enzyme Mix 1 (0.5 μL), 5 × PrimeScriptTM Buffer (2 μL), oligo dt Primer (0.5 μL) and Random 6 mers (0.5 μL) were gently mixed with 1 μg RNA from each sample to a reaction volume of 10 μL with RNase free water, then incubated for 15 minutes at 37 °C to activate the reverse transcriptase enzyme. Finally, the reaction was stopped by 85 °C for 5 seconds.
After reverse transcription, cDNA was used to carry out real-time quantitative RT-PCR on ProFlex™ PCR system by SYBR Premix Ex Taq (Takara). The final volume of TR-PCR reaction is 25 μL, containing 12.5 μL SYBR green master mix, 1 μL cDNA, 0.5 μL each forward and reverse primer, and 10.5 μL nuclease-free water. For information of primers see Table S1. ^† Thermal cycling conditions for all genes were as follows: template pre-denaturation (10 min at 95 °C), denaturation (15 seconds at 95 °C), annealing and extension (30 seconds at 60 °C) for 40 cycles. Internal reference is GAPDH mRNA, and fold changes of mRNA expression for each target relative to GAPDH were calculated by the 2^−ΔΔCt method. Expression of mRNA is determined as the change in mRNA copy numbers relative to negative control cells (undifferentiated THP-1 cells). All the experiments were carried out in triplicate.

[3] = system: migration of PMA-induced THP-1 cells; test: Wound-healing (scratch wound) migration assay; assay type: cell-based; conditions: Homo sapiens, 24 h incubation, read-out: IC50, decrease of number of migrated cells
Description: as §1
The differentiated THP-1 cells were seeded and grown into full confluence in 6 well plates. 2% FBS DMEM/F12 media was used to inactivated cell proliferation for 12 h, then wounded with pipette tips. Fresh DMEM/F12 medium with or without 1, 3, 10, 25, and 50 μM of 7 was added to the scratched monolayers. Images were took after 24 hours using a Nickon inverted microscope (magnification, 10×). The migration cell number of PMA-induced THP-1 cell group was defined as control. All the experiments were performed in triplicate.

Compound | inhibitions on CD147 and MMPs mRNA expression (in words) [1] | IC50 (MMP-2 mRNA expression; Homo sapiens, q-PCR, 1-50 μM, read-out: IC50, down-regulation of mRNA expression of MMP-2) | IC50 (MMP-9 mRNA expression; Homo sapiens, q-PCR, 1-50 μM, read-out: IC50, down-regulation of mRNA expression of MMP-9) | CD147 mRNA inhibitory effect compared with YG (positive control) [2] | suppression of the mRNA expression of CD147 (in words) [2] | IC50 [2] | IC50 [3] | decrease of MMP-2 mRNA expression (MMP-2 mRNA expression; 10 μM, P < 0.01) | decrease of MMP-9 mRNA expression (MMP-9 mRNA expression; 10 μM, P < 0.01)
12β-hydroxycimiacerol [HC] | notable inhibitions |  |  |  |  |  |  |  | 
CC1CC(C(O)C(C)(C)O)OC2(O)C(=O)C3(C)C4=CCC5C(C)(C)C(=O)CCC56CC46CC(O)C3(C)C12 [Compound 7, (23R,24S)-12β-Hydroxy-7(8)-en-3,15-dione-hydroxyshengmanol] |  | 6.32 ± 0.31 µM | 11.6 ± 0.23 µM | more potent than YG | noticeably suppressed | 3.38 ± 0.27 µM | 5.87 ± 0.27 µM |  | 
CC1C(O)C2(OC3CC4(C)C5CCC6C(C)(C)C(O)CCC67CC57CCC4(C)C31)OC2C(C)(C)O (stereo not shown) [Compound 8, Actaeaepol] |  |  |  | same level of activity as YG | noticeably suppressed | 8.25 ± 0.33 µM |  | 35% | 25%
yunnanterpene G [YG] | notable inhibitions |  |  |  |  |  |  |  | 
